Test results published in US20230167073A1 (Teijin Pharma Limited, priority 2020, published 2023).

Molecular target: T1, Human TRPC6 (Homo sapiens, UniProt Q9Y210)
T1 construct: expressed in transfected cells
T1 sequence (Q9Y210 1-931): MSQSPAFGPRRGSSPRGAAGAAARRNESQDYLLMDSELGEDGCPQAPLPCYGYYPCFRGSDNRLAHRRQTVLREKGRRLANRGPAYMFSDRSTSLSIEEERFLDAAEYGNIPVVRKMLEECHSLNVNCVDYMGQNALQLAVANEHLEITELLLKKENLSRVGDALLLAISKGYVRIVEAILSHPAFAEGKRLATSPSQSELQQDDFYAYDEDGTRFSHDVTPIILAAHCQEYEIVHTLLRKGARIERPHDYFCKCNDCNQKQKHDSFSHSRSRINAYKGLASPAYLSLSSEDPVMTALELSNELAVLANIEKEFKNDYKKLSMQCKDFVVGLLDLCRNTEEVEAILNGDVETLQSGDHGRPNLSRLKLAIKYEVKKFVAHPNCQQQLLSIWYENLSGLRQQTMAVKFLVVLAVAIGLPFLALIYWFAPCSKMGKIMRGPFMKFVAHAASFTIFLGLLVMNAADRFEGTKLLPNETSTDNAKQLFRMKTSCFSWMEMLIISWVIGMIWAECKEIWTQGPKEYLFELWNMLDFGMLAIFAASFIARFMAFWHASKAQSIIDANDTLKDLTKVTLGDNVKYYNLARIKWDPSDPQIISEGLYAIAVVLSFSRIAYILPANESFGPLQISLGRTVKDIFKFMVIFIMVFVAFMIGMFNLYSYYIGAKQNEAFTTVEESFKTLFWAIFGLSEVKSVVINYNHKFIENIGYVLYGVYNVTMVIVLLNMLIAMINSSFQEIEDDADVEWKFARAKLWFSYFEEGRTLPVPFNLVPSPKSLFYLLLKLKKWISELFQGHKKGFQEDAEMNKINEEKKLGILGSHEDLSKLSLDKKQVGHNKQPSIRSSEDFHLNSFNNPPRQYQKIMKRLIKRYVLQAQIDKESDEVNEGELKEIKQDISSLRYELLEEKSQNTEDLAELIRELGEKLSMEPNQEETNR
Experiment: Evaluation of TRPC6 channel inhibitory activity (1), FLIPR Calcium 5 Assay Kit, OAG stimulation (Compound Nos. 1-1293)
Type: cell-based
Conditions: not given
Procedure, shortened: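 Calcium influx read by FLIPR fluorescence in cells stably expressing human TRPC6, dye-loaded 30 min. Compounds preincubated 20 min, then OAG stimulation at 30 μM final. Inhibition fitted by four-parameter logistic regression to give pIC50, reported as +/++/+++ categories.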

Structure (SMILES)	IC50 [nM]
Cc1nc(Oc2cc(C#N)ccc2-c2ccc(CC3(N)COC3)cn2)cc(N2C3CCC2CC3)n1 [Compound No. 670, 4-[5-[(3-Aminooxetan-3-yl)methyl]pyridin-2-yl]-3-[6-(7-azabicyclo[2.2.1]heptan-7-yl)-2-methylpyrimidin-4-yl]oxybenzonitrile]	< 10

Same assay, conditions: Human TRPC6 stably-expressing cells, OAG 30 μM, FLIPR Calcium 5 Assay Kit; read-out: Inhibitory activity (pIC50 class) (converted)

Structure (SMILES)	IC50 [nM]
CCCc1cc(Oc2cc(C#N)ccc2-c2ccc(CN)cn2)n(C)n1 [compound 361, 4-[5-(aminomethyl)pyridin-2-yl]-3-(2-methyl-5-propylpyrazol-3-yl)oxybenzonitrile]	< 10
Cc1cc(Oc2cc(C#N)ccc2-c2cnc(CCN)cn2)cc(N2CCOCC2)n1 [compound 388, 4-[5-(2-aminoethyl)pyrazin-2-yl]-3-(2-methyl-6-morpholin-4-ylpyridin-4-yl)oxybenzonitrile]	< 10
Cn1nc(C(C)(C)C)cc1C(O)c1cc(C#N)ccc1-c1ncc(CCN)cn1 (stereo not shown) [compound 1235, 4-[5-(2-aminoethyl)pyrimidin-2-yl]-3-[(5-tert-butyl-2-methylpyrazol-3-yl)-hydroxymethyl]benzonitrile]	10 to 1000
Cc1nc(Oc2cc(C#N)ccc2-c2ccc(C(CN)c3ccsc3)cc2)cc(N2CCOCC2)n1 (stereo not shown) [Compound 72, 4-[4-(2-amino-1-thiophen-3-ylethyl)phenyl]-3-(2-methyl-6-morpholin-4-ylpyrimidin-4-yl)oxybenzonitrile]	10 to 1000
Cc1cc(Oc2cc(C#N)ccc2-c2ccc([C@H](O)CN)cn2)cc(OCC2CCCO2)n1 (stereo partly drawn) [compound 478, 4-[5-[(1S)-2-amino-1-hydroxyethyl]pyridin-2-yl]-3-[2-methyl-6-(oxolan-2-ylmethoxy)pyridin-4-yl]oxybenzonitrile]	10 to 1000
Cc1nc(Oc2cc(C#N)ccc2-n2cc([C@@H](O)CN)cn2)cc(OC2CCCC2)n1 [Compound 265, 4-[4-[(1R)-2-amino-1-hydroxyethyl]pyrazol-1-yl]-3-(6-cyclopentyloxy-2-methylpyrimidin-4-yl)oxybenzonitrile]	10 to 1000
CC(C)Cn1cc(Cc2cc(C#N)ccc2-c2ncc(CCN)cn2)cn1 [Compound No. 1195, 4-[5-(2-Aminoethyl)pyrimidin-2-yl]-3-[[1-(2-methylpropyl)pyrazol-4-yl]methyl]benzonitrile]	< 10
Cc1nn(CC(C)C)c(C)c1Oc1cc(C#N)ccc1-c1ncc(CCN)cn1 [compound 939, 4-[5-(2-aminoethyl)pyrimidin-2-yl]-3-[3,5-dimethyl-1-(2-methylpropyl)pyrazol-4-yl]oxybenzonitrile]	10 to 1000
Cc1cc(Oc2cc(C#N)ccc2-c2ccc(OCCN)cn2)cc(N2CCOCC2)n1 [compound 350, 4-[5-(2-aminoethoxy)pyridin-2-yl]-3-(2-methyl-6-morpholin-4-ylpyridin-4-yl)oxybenzonitrile]	10 to 1000
Cn1nc(C2CCC2)cc1Oc1cc(C#N)ccc1-c1ccc(C(O)CNCC#N)cn1 (stereo not shown) [Compound 280, 4-[5-[2-(cyanomethylamino)-1-hydroxyethyl]pyridin-2-yl]-3-(5-cyclobutyl-2-methylpyrazol-3-yl)oxybenzonitrile]	10 to 1000
Cn1nc(N2CCOCC2)cc1Oc1cc(F)ccc1-c1ncc(CCN)cn1 [compound 973, 2-[2-[4-fluoro-2-(2-methyl-5-morpholin-4-ylpyrazol-3-yl)oxyphenyl]pyrimidin-5-yl]ethanamine]	10 to 1000
Cc1nc(-c2ccccc2)cn1Cc1cc(C#N)ccc1-c1ccc(C(O)CN)cn1 (stereo not shown) [compound 1139, 4-[5-(2-amino-1-hydroxyethyl)pyridin-2-yl]-3-[(2-methyl-4-phenylimidazol-1-yl)methyl]benzonitrile]	10 to 1000
Cc1nc(Oc2cc(C#N)ccc2-n2cc(N3CCNCCC3=O)cn2)cc(C2CCCC2)n1 [Compound 210, 3-(6-cyclopentyl-2-methylpyrimidin-4-yl)oxy-4-[4-(7-oxo-1,4-diazepan-1-yl)pyrazol-1-yl]benzonitrile]	> 1000
N#Cc1ccc(-c2ncc(CCN)cn2)c([S+]([O-])c2cnnc(N3CCCCC3)c2)c1 (stereo not shown) [Compound No. 1276, 4-[5-(2-Aminoethyl)pyrimidin-2-yl]-3-(6-piperidin-1-ylpyridazin-4-yl)sulfinylbenzonitrile]	> 1000
Cc1nc(Oc2cc(C#N)ccc2-c2ccc(CCN)cc2)cc(OC2CCCC2)n1 [Compound 45, 4-[4-(2-aminoethyl)phenyl]-3-(6-cyclopentyloxy-2-methylpyrimidin-4-yl)oxybenzonitrile]	10 to 1000
Cc1nc(Oc2cc(C#N)ccc2-c2ccc(CCN)cc2)cc(-c2ncco2)n1 [Compound 34, 4-[4-(2-aminoethyl)phenyl]-3-[2-methyl-6-(1,3-oxazol-2-yl)pyrimidin-4-yl]oxybenzonitrile]	10 to 1000
Cn1nc(N2CCCC2)cc1Cc1cc(C#N)ccc1-c1ncc(CN)cn1 [compound 1210, 4-[5-(aminomethyl)pyrimidin-2-yl]-3-[(2-methyl-5-pyrrolidin-1-ylpyrazol-3-yl)methyl]benzonitrile]	< 10
Cn1nc(-c2cccc(F)c2)cc1Oc1cc(C#N)ccc1-c1ccc(CCN)cc1 [Compound 186, 4-[4-(2-aminoethyl)phenyl]-3-[5-(3-fluorophenyl)-2-methylpyrazol-3-yl]oxybenzonitrile]	< 10
Cc1cc(Oc2cc(C#N)ccc2-c2ncc(CN)cn2)no1 [compound 676, 4-[5-(aminomethyl)pyrimidin-2-yl]-3-[(5-methyl-1,2-oxazol-3-yl)oxy]benzonitrile]	> 1000
Cc1nc(C(=O)c2cc(F)ccc2-c2ncc(CCN)cn2)cc(N2CCOCC2)n1 [compound 1103, [2-[5-(2-aminoethyl)pyrimidin-2-yl]-5-fluorophenyl]-(2-methyl-6-morpholin-4-ylpyrimidin-4-yl)methanone]	10 to 1000
Cn1nc(N2CCCCC2)cc1Cc1cc(C#N)ccc1-c1ccc(CCN)cn1 [compound 1219, 4-[5-(2-aminoethyl)pyridin-2-yl]-3-[(2-methyl-5-piperidin-1-ylpyrazol-3-yl)methyl]benzonitrile]	< 10
CC(C)n1cc(C(=O)c2cc(F)ccc2-c2ncc(CCN)cn2)cn1 [compound 1102, [2-[5-(2-aminoethyl)pyrimidin-2-yl]-5-fluorophenyl]-(1-propan-2-ylpyrazol-4-yl)methanone]	10 to 1000
Cc1nc(Oc2cc(C#N)ccc2-c2nc([C@@H](O)CN)cs2)cc(-c2ccccc2)n1 [Compound 222, 4-[4-[(1S)-2-amino-1-hydroxyethyl]-1,3-thiazol-2-yl]-3-(2-methyl-6-phenylpyrimidin-4-yl)oxybenzonitrile]	10 to 1000
Cc1nc(OCC(F)(F)F)cc(Oc2cc(C#N)ccc2-n2cc([C@@H](O)CN)cn2)n1 [Compound 268, 4-[4-[(1R)-2-amino-1-hydroxyethyl]pyrazol-1-yl]-3-[2-methyl-6-(2,2,2-trifluoroethoxy)pyrimidin-4-yl]oxybenzonitrile]	10 to 1000
Cc1nc(Oc2cc(C#N)ccc2-c2ccc3c(c2)CC(N)C3=O)cc(N2CCOCC2)n1 (stereo not shown) [Compound 131, 4-(2-Amino-1-oxo-2,3-dihydroinden-5-yl)-3-(2-methyl-6-morpholin-4-ylpyrimidin-4-yl)oxybenzonitrile]	> 1000
Cc1cc(Oc2nc(C#N)ccc2-c2ncc(CN)cn2)cc(N2CCOCC2)n1 [compound 1285, 5-[5-(aminomethyl)pyrimidin-2-yl]-6-(2-methyl-6-morpholin-4-ylpyridin-4-yl)oxypyridine-2-carbonitrile]	> 1000
CCN(CC)c1cc(Oc2cc(F)ccc2-c2ccc(CCN)cn2)n(C)n1 [compound 991, 5-[2-[5-(2-aminoethyl)pyridin-2-yl]-5-fluorophenoxy]-N,N-diethyl-1-methylpyrazole-3-amine]	< 10
Cc1nc(OCC2(C)COC2)cc(Oc2cc(C#N)ccc2-c2ncc(CCN)cn2)n1 [compound 885, 4-[5-(2-aminoethyl)pyrimidin-2-yl]-3-[2-methyl-6-[(3-methyloxetan-3-yl)methoxy]pyrimidin-4-yl]oxybenzonitrile]	> 1000
CN(C)C(=O)CNC(C)(C)Cc1ccc(-c2ccc(C#N)cc2Oc2cc(-c3ccccn3)nn2C)nc1 [compound 839, 2-[[1-[6-[4-cyano-2-(2-methyl-5-pyridin-2-ylpyrazol-3-yl)oxyphenyl]pyridin-3-yl]-2-methylpropan-2-yl]amino]-N,N-dimethylacetamide]	> 1000
CN(C)CCOc1ccc(-c2ccc(C#N)cc2Oc2cc(C3CC3)nn2C)nn1 [compound 784, 3-(5-cyclopropyl-2-methylpyrazol-3-yl)oxy-4-[6-[2-(dimethylamino)ethoxy]pyridazin-3-yl]benzonitrile]	> 1000
